Assay [1] deals with Soybean. In words: Preemergence herbicidal activity, soybean. The format is in vivo, Glycine max var. Williams. Conditions: Glycine max, pre-emergence, 0.3 kg/ha, after 17-21 days, read-out: Preemergence herbicidal activity (% control), Soybean. As to the method:
(§1) The 3-[4-(phenylmethoxy)phenyl]-1-substituted-6-haloalkyluracil herbicides of this invention were tested for pre- and postemergence herbicidal activity using a variety of crops and weeds. The test plants included soybean (Glycine max var. Williams), field corn (Zea mays var. Agway 425X), wheat (Triticum aestivum var. Wheaton), morningglory (Ipomea lacunosa or Ipomea hederacea), velvetleaf (Abutilon theophrasti), green foxtail (Setaria viridis), Johnsongrass (Sorghum halepense), blackgrass (Aloepecurus myosuroides), common chickweed (Stellaria media), and common cocklebur (Xanthium pensylvanicum).
(§2) For preemergence testing, two disposable fiber flats (8 cm×15 cm×25 cm) for each rate of application of each candidate herbicide were filled to an approximate depth of 6.5 cm with steam-sterilized sandy loam soil. The soil was leveled and impressed with a template to provide five evenly spaced furrows 13 cm long and 0.5 cm deep in each flat. Seeds of soybean, wheat, corn, green foxtail, and johnsongrass were planted in the furrows of the first flat, and seeds of velvetleaf, morningglory, common chickweed, cocklebur, and blackgrass were planted in the furrows of the second flat. The five-row template was employed to firmly press the seeds into place. A topping soil of equal portions of sand and sandy loam soil was placed uniformly on top of each flat to a depth of approximately 0.5 cm. Flats for postemergence testing were prepared in the same manner except that they were planted 8-12 days prior to the preemergence flats and were placed in a greenhouse and watered, thus allowing the seeds to germinate and the foliage to develop.
(§3) In both pre- and postemergence tests, a stock solution of the candidate herbicide was prepared by dissolving 0.27 g of the compound in 20 mL of water/acetone (50/50) containing 0.5% v/v sorbitan monolaurate. For an application rate of 3000 g/ha of herbicide a 10 mL portion of the stock solution was diluted with water/acetone (50/50) to 45 mL.
(§4) The preemergence flats were initially subjected to a light water spray. The four flats were placed two by two along a conveyor belt (i.e., the two preemergence followed by the two postemergence flats). The conveyor belt fed under a spray nozzle mounted about ten inches above the postemergent foliage. The preemergent flats were elevated on the belt so that the soil surface was at the same level below the spray nozzle as the foliage canopy of the postemergent plants. The spray of herbicidal solution was commenced and once stabilized, the flats were passed under the spray at a speed to receive a coverage equivalent of 1000 L/ha. At this coverage the application rates are those shown in the above table for the individual herbicidal solutions. The preemergence flats were watered immediately thereafter, placed in the greenhouse and watered regularly at the soil surface. The postemergence flats were immediately placed in the greenhouse and not watered until 24 hours after treatment with the test solution. Thereafter they were regularly watered at ground level. After 17-21 days the plants were examined and the phytotoxicity data were recorded.
(§5) Herbicidal activity data at selected application rates are given for various compounds of this invention in Table 2 and Table 3. The test compounds are identified by numbers which correspond to those in Table 1.
(§6) Phytotoxicity data were taken as percent control. Percent control was determined by a method similar to the 0 to 100 rating system disclosed in "Research Methods in Weed Science," 2nd ed., B. Truelove, Ed.; Southern Weed Science Society; Auburn University, Auburn, Ala., 1977.

Assay [2] concerns Wheat. In words: Preemergence herbicidal activity, wheat. The format is in vivo, Triticum aestivum var. Wheaton. Conditions: Triticum aestivum, pre-emergence, 0.3 kg/ha, after 17-21 days, read-out: Preemergence herbicidal activity (% control), Wheat. The method, then: as §1, §2, §3, §4, §5, §6
Assay [3] relates to Corn. In words: Preemergence herbicidal activity, corn. The assay is classed as in vivo, Zea mays var. Agway 425X. Conditions: Zea mays, pre-emergence, 0.3 kg/ha, after 17-21 days, read-out: Preemergence herbicidal activity (% control), Corn. As to the method: as §1, §2, §3, §4, §5, §6
The subject of assay [4] is Velvetleaf. In words: Preemergence herbicidal activity, velvetleaf. The format is in vivo. Conditions: Abutilon theophrasti, pre-emergence, 0.3 kg/ha, after 17-21 days, read-out: Preemergence herbicidal activity (% control), Velvetleaf. As to the method: as §1, §2, §3, §4, §5, §6
Assay [5] concerns Morningglory. In words: Preemergence herbicidal activity, morningglory. Conditions: Ipomoea, pre-emergence, 0.3 kg/ha, after 17-21 days, read-out: Preemergence herbicidal activity (% control), Morningglory. The assay is classed as in vivo, Ipomea lacunosa or Ipomea hederacea. The method, then:
as §1, §2, §3, §4, §5, §6

The test system of assay [6] is Chickweed. As to the kind of experiment: Preemergence herbicidal activity, chickweed. The format is in vivo. Conditions: Stellaria media, pre-emergence, 0.3 kg/ha, after 17-21 days, read-out: Preemergence herbicidal activity (% control), Chickweed. As to the method: as §1, §2, §3, §4, §5, §6
Assay [7] deals with Cocklebur. As to the kind of experiment: Preemergence herbicidal activity, cocklebur. The format is in vivo, Xanthium pensylvanicum. Conditions: Xanthium strumarium, pre-emergence, 0.3 kg/ha, after 17-21 days, read-out: Preemergence herbicidal activity (% control), Cocklebur. As to the method:
as §1, §2, §3, §4, §5, §6

Assay [8] relates to Blackgrass. As to the kind of experiment: Preemergence herbicidal activity, blackgrass. Conditions: Alopecurus myosuroides, pre-emergence, 0.3 kg/ha, after 17-21 days, read-out: Preemergence herbicidal activity (% control), Blackgrass. The format is in vivo, Aloepecurus myosuroides. The method, then:
as §1, §2, §3, §4, §5, §6

Assay [9] has as its system Green foxtail. In words: Preemergence herbicidal activity, green foxtail. The assay is classed as in vivo. Conditions: Setaria viridis, pre-emergence, 0.3 kg/ha, after 17-21 days, read-out: Preemergence herbicidal activity (% control), Green foxtail. The method, then:
as §1, §2, §3, §4, §5, §6

Assay [10] concerns Johnsongrass. As to the kind of experiment: Preemergence herbicidal activity, johnsongrass. The format is in vivo. Conditions: Sorghum halepense, pre-emergence, 0.3 kg/ha, after 17-21 days, read-out: Preemergence herbicidal activity (% control), Johnsongrass. As to the method: as §1, §2, §3, §4, §5, §6
The test system of assay [11] is Soybean. In words: Postemergence herbicidal activity, soybean. The format is in vivo, Glycine max var. Williams. Conditions: Glycine max, post-emergence, 0.3 kg/ha, after 17-21 days, read-out: Postemergence herbicidal activity (% control), Soybean. The method, then:
as §1, §2, §3, §4, §5, §6

The subject of assay [12] is Wheat. As to the kind of experiment: Postemergence herbicidal activity, wheat. The format is in vivo, Triticum aestivum var. Wheaton. Conditions: Triticum aestivum, post-emergence, 0.3 kg/ha, after 17-21 days, read-out: Postemergence herbicidal activity (% control), Wheat. The method, then:
as §1, §2, §3, §4, §5, §6

In assay [13] the test system is Corn. In words: Postemergence herbicidal activity, corn. The assay is classed as in vivo, Zea mays var. Agway 425X. Conditions: Zea mays, post-emergence, 0.3 kg/ha, after 17-21 days, read-out: Postemergence herbicidal activity (% control), Corn. As to the method: as §1, §2, §3, §4, §5, §6
Assay [14] relates to Velvetleaf. As to the kind of experiment: Postemergence herbicidal activity, velvetleaf. Conditions: Abutilon theophrasti, post-emergence, 0.3 kg/ha, after 17-21 days, read-out: Postemergence herbicidal activity (% control), Velvetleaf. The assay is classed as in vivo. The method, then:
as §1, §2, §3, §4, §5, §6

Assay [15] relates to Morningglory. In words: Postemergence herbicidal activity, morningglory. The format is in vivo, Ipomea lacunosa or Ipomea hederacea. Conditions: Ipomoea, post-emergence, 0.3 kg/ha, after 17-21 days, read-out: Postemergence herbicidal activity (% control), Morningglory. The method, then: as §1, §2, §3, §4, §5, §6
The test system of assay [16] is Chickweed. As to the kind of experiment: Postemergence herbicidal activity, chickweed. The assay is classed as in vivo. Conditions: Stellaria media, post-emergence, 0.3 kg/ha, after 17-21 days, read-out: Postemergence herbicidal activity (% control), Chickweed. As to the method: as §1, §2, §3, §4, §5, §6
Assay [17] deals with Cocklebur. In words: Postemergence herbicidal activity, cocklebur. The format is in vivo, Xanthium pensylvanicum. Conditions: Xanthium strumarium, post-emergence, 0.3 kg/ha, after 17-21 days, read-out: Postemergence herbicidal activity (% control), Cocklebur. The method, then:
as §1, §2, §3, §4, §5, §6

The subject of assay [18] is Blackgrass. In words: Postemergence herbicidal activity, blackgrass. The format is in vivo, Aloepecurus myosuroides. Conditions: Alopecurus myosuroides, post-emergence, 0.3 kg/ha, after 17-21 days, read-out: Postemergence herbicidal activity (% control), Blackgrass. As to the method: as §1, §2, §3, §4, §5, §6
The test system of assay [19] is Green foxtail. In words: Postemergence herbicidal activity, green foxtail. The assay is classed as in vivo. Conditions: Setaria viridis, post-emergence, 0.3 kg/ha, after 17-21 days, read-out: Postemergence herbicidal activity (% control), Green foxtail. As to the method:
as §1, §2, §3, §4, §5, §6

Assay [20] has as its system Johnsongrass. In words: Postemergence herbicidal activity, johnsongrass. Conditions: Sorghum halepense, post-emergence, 0.3 kg/ha, after 17-21 days, read-out: Postemergence herbicidal activity (% control), Johnsongrass. The assay is classed as in vivo. As to the method: as §1, §2, §3, §4, §5, §6

As to `Cn1c(C(F)(F)F)cc(=O)n(-c2ccc(OCc3c(Cl)cccc3Cl)cc2)c1=O` [Compound 7], the activity at 300 g/ha in assay [1], in assay [2], in assay [3], in [4], in assay [5] and in assay [6] was 0% in each case. The activity at 300 g/ha in assay [7], in assay [8], in assay [9], in assay [10], in assay [11] and in assay [12] was 0% in each case. Further, the activity at 300 g/ha was determined as 0% in [13]; 0% in assay [14]; 10% in assay [15]; 0% in assay [16]; 0% in [17]; 0% in assay [18]. The activity at 300 g/ha stood at 90% in assay [19] and 0% in [20].

For `Cn1c(C(F)(F)F)cc(=O)n(-c2ccc(OCc3ccccc3Cl)cc2)c1=O` [Compound 2], the activity at 300 g/ha amounted to 20% in [1]; 5% in assay [2]; 15% in assay [3]; 100% in assay [4]; 60% in assay [5]; 0% in [6]. The activity at 300 g/ha in assay [7] was found to be 10%; in assay [8] it was 0%; in assay [9] it was 100%; in assay [10], 70%; in assay [11], 60%; in assay [12], 0%. Further, the activity at 300 g/ha was 45% in assay [13]; 80% in assay [14]; 60% in assay [15]; 0% in assay [16]; 30% in assay [17]; 0% in [18]. Also, the activity at 300 g/ha was found to be 85% in [19] and 10% in [20].

`Cn1c(C(F)(F)F)cc(=O)n(-c2ccc(OCc3ccc(Cl)cc3Cl)cc2)c1=O` [Compound 6]: the activity at 300 g/ha worked out at 20% in assay [1]; 0% in assay [2]; 10% in assay [3]; 100% in assay [4]; 45% in [5]; 10% in assay [6]. Besides, the activity at 300 g/ha in [7] was determined as 10%; in assay [8] it was 0%; in assay [9], 100%; in assay [10], 60%; in [11], 40%; in assay [12] it was 0%. Also, the activity at 300 g/ha in assay [13] stood at 20%; in [14], 80%; in assay [15], 50%; in [16], 0%; in assay [17] it was 60%; in assay [18], 0%. The activity at 300 g/ha in [19] is 40%; in assay [20], 20%.

As for `Cn1c(C(F)(F)F)cc(=O)n(-c2ccc(OCc3ccc(Cl)cc3)cc2F)c1=O` [Compound 10, 3-[4-(4-Chlorophenylmethoxy)-2-fluorophenyl]-1-methyl-6-trifluoromethyluracil], the activity at 300 g/ha was found to be 100% in [1]; 20% in assay [2]; 20% in assay [3]; 100% in assay [4]; 100% in [5]; 100% in assay [6]. Moreover, the activity at 300 g/ha in assay [7] came out at 100%; in [8], 50%; in assay [9], 100%; in [10] it was 95%; in [11], 95%; in [12], 10%. Moreover, the activity at 300 g/ha in assay [13] worked out at 50%; in assay [14], 100%; in assay [15] it was 100%; in assay [16], 100%; in [17], 100%; in [18] it was 40%. Further, the figures for the activity at 300 g/ha in [19] and in assay [20] were 100% and 95%, respectively.

For the compound `COc1ccc(COc2ccc(-n3c(=O)cc(C(F)(F)F)n(C)c3=O)cc2)cc1` [Compound 44], the activity at 300 g/ha is 40% in [1]; 10% in [2]; 0% in [3]; 100% in assay [4]; 100% in [5]; 20% in assay [6]. In addition, the activity at 300 g/ha in assay [7] is 25%; in [8], 20%; in [9], 60%; in assay [10] it was 10%; in [11], 40%; in [12], 10%. In addition, the activity at 300 g/ha in assay [13] was determined as 30%; in assay [14], 40%; in [15] it was 90%; in [16] it was 20%; in [17], 50%; in assay [18], 50%. In addition, the activity at 300 g/ha in assay [19] was found to be 70%; in assay [20] it was 50%.

The record behind these values is patent US5399543A, “3-[4-(phenylmethoxy)phenyl]-1-substituted-6-haloalkyl-uracil herbicides” (FMC Corporation, priority 1993, dated 1995).
